Test results reported in article PMC8427951, “Design, synthesis, and preliminary evaluation of a potential synthetic opioid rescue agent” (Journal of Biomedical Science, 2021).
Entries after “also recorded” stand apart in the source; their conditions may differ. Read-outs that look alike come from different tables or passages of the source.

Columns and labels:
[1] = Pharmacokinetic study, plasma (IV, PO, IP); format: in vivo, C57BL/6J mice; settings: for half-life / Tmax / bioavailability / AUC: plasma; for AUC: NCA
Experimental: (§1) Adult male C57BL/6J mice were purchased from Jackson Laboratories (Bar Harbor, ME). The animals were housed in polyethylene cages and given food and water ad libitum. Animals were administered 29 by intravenous, oral gavage or intraperitoneal (IV, PO or IP injection). Two groups of mice (n = 3/group) were sampled three times each via the saphenous vein. Whole blood samples were collected into heparinized pipet tips, centrifuged at 4300×g for 2 min to isolate plasma and transferred onto dry ice. Plasma samples were stored at − 80 °C until processing. Separately, for brain biodistribution studies, five mice per time-point were administered 29 via the IP route and a single blood sample was collected from each animal via intracardiac puncture prior to perfusing with ice-cold saline for 5 min before removing the brain. All animal procedures were conducted in accordance with The Guide for the Care and Use of Laboratory Animals (National Academic Press, 1996) and approved by the IACUC (Institutional Animal Care and Use Committee) at the University of Kentucky and at the Rockefeller University.
Experimental plasma samples were thawed at 37 °C for 3 min and vortex mixed. […] Samples were vortex mixed, then treated with 4× volume (60 µL) of 0.1% formic acid in methanol to precipitate proteins. The samples were vortex mixed (5 s) then centrifuged at 13,000×g for 15 min at 4 °C. The resulting supernatants were collected into amber HPLC vials fitted with 200 µL glass inserts and immediately analyzed for analyte content by LC/MS–MS.
(§2) For the analysis of total amount of 29 in the plasma samples, calibration curve was generated with 29 drug spiked to mouse blank plasma. Calibrators (0.25–1000 ng/mL) were prepared by the addition of 5 µL of appropriate spiking solution into 100 µL blank plasma followed by vortex mixing. Quality control samples (0.75, 25, 500, 850 ng/mL) were prepared from an independent second stock in a similar fashion. For the analysis of 29 in brain tissue samples, calibration curve was generated with 29 drug spiked to blank mouse brain tissue homogenate using a calibration curve (0.5–372 ng/mL) and quality control samples (0.75, 13.3, 25, 266 ng/mL). The limit of quantitation for plasma was 0.4 ng/mL and for brain tissue 1 ng/mL.
(§3) Analyte and internal standard contained in 4 µL sample injections were eluted from a Waters XBridge C18 (3.5µ, 4.6 × 150 mm; oven temp. 40 °C) analytical column with a 0.1% formic acid in water (Mobile Phase-A): 0.1% formic acid in acetonitrile (Mobile Phase-B) gradient. […] The 90% Mobile Phase-B was maintained for 2.5 min before returning to the initial 35% over a 0.1 min linear ramp. […] The total run time was 7.5 min. Positive-mode ESI Turbo V® source and MS gas, temperature and voltage potential settings were based on optimized parameters determined prior to analysis using infusions of 1000 ng/mL drug standards in 50:50 mobile phase mixture mixed with LC effluent for a total 0.6 mL/min flow rate. Flow-dependent parameters were: CUR = 35/ISV = 5500/TEM = 550/GS1 = 65/GS2 = 65/Horizontal probe position = 7/Vertical probe position = 0.5). […] Calibrators, quality control samples and experimental sample sequences consisted of single randomized experimental sample injections flanked by sets of blanks, and calibrators. A calibration curve was constructed by weighted (1/x^2) polynomial regression analysis of analyte concentration to analyte peak area using GraphPad Prism software (Ver 8.4.3).
(§4) All data sets were analyzed using Phoenix WinNonlin (Certara). A 2-compartment mammillary model was simultaneously fitted to all plasma concentrations obtained from intravenous, oral, and intraperitoneal administration of 29. The oral and intraperitoneal bioavailability was also estimated. Parameters were estimated using population modeling with quasi-random parameter estimation method (QRPEM). […]

[2] = test system: C57BL/6J mice; assay: Hot plate assay, oxycodone-induced thermal antinociception; format: in vivo
[3] = Brain biodistribution study after IP dosing; format: in vivo, C57BL/6J mice; settings: male, C57BL/6J, mouse, 2 mg/kg
Experimental: as §1
Brains were excised and sectioned at the sagittal plane. Half of the brain from each animal was homogenized (1:1, w/v) with phosphate buffered saline. […] Proteins were precipitated by addition of 80 µL of 0.1% formic acid. Samples were vortex mixed (10 s) and stored at − 20 °C for 20 min prior to centrifugation at 13,000×g for 15 min at 4 °C. The resulting supernatants were collected into amber HPLC vials fitted with 200 µL glass inserts and immediately analyzed for analyte content by LC/MS–MS.
as §2, §3, §4

[4] = test system: C57BL/6J mice; assay: Locomotor activity assay, deficits caused by KOR agonist U50,488; format: in vivo
Experimental: These studies (in C57BL/6J mice from the Jackson Laboratory) focused on the effectiveness of 29 in preventing decreases in locomotor activity caused by the KOR agonist U50,488 (10 mg/kg, IP) over 90 min. This dose and duration of monitoring period was based on recently published studies. Mice were placed individually in rectangular transparent plastic cages (19.7 cm width × 41.3 cm length × 20.3 cm height) with bedding identical to that in the home cage. Each cage was in a photocell frame with an array of perpendicular photocell beams (SmartFrame; Kinder Scientific, Poway, CA). Beam breaks caused by the mouse were quantified through a computer interface. Mice were habituated to this apparatus for a 60-min session. Consecutive experiments in the same mice were separated by at least 72 h. Vehicle or 29 was injected 30 min prior to U50,488 (10 mg/kg). Immediately after the U50,488 injection, each mouse was placed in a locomotor activity cage for a 90-min period.
The locomotor activity data were analyzed as beam breaks over 15-min bins. Data were analyzed with 2-way repeated measures or mixed effects ANOVAs, followed by appropriate post-hoc tests (GraphPad Prism software).

[5] = male, C57BL/6J, mouse, IP, 2 mg/kg
[6] = male, C57BL/6J, mouse, IV, 2 mg/kg
[7] = male, C57BL/6J, mouse, PO, 5 mg/kg

With `C=C1CC[C@@]2(OCCC)[C@H]3Cc4ccc(O)c5c4[C@@]2(CCN3CC2CC2)[C@H]1O5` [Compound 29] the CL2 ([1]; 2-compartment model) was 174 mL/min/kg, the V2 ([1]; 2-compartment model) was 6.07 L/kg and the V ([1]; 2-compartment model fitted to IV, PO and IP plasma concentrations) was 5.36 L/kg. The “FIP (bioavailability following IP administration)” value ([1]; 2-compartment model, IP 2 mg/kg, 2 mg/kg) was 99.5%, the “Ka,ip” value ([1]; 2-compartment model, intraperitoneal absorption) was 7.53 h⁻¹ and the “Ka,po” value ([1]; 2-compartment model, oral absorption) was 7.91 h⁻¹. For the same compound, the “time of measurable plasma concentrations” value ([1]; IP dosing) was “at least 6 h”, the “time plasma concentrations were above the lower quantitation limit” value ([1]; following IV and PO dosing) was 2 h and the half-life ([1]; male, C57BL/6J, mouse, intraperitoneal, 2 mg/kg, mice, read-out: plasma half-life (converted)) was 54 min. For the same compound, the clearance ([1]; male, C57BL/6J, mouse, intraperitoneal, 2-compartment model fitted to IV, PO and IP plasma concentrations) was 202 mL/min/kg, the Tmax ([1]; male, C57BL/6J, mouse, intraperitoneal, PO and IP administration) was ≤ 10 min and the half-life ([1]; male, C57BL/6J, mouse, intravenous, oral, intraperitoneal, mice, read-out: plasma half-life (converted)) was 36 to 60 min. It also gave a bioavailability ([1]; male, C57BL/6J, mouse, ip, 2 mg/kg, 2-compartment model, IP 2 mg/kg, read-out: FIP (bioavailability following IP administration)) of ~100%, a bioavailability ([1]; male, C57BL/6J, mouse, po, 5 mg/kg, 2-compartment model, PO 5 mg/kg, read-out: Fpo (oral bioavailability)) of ~6.6% and a Tmax [1, 5] of 7.2 min. It also gave an AUC [1, 5] of 0.397 µM·h, a half-life ([1]; male, C57BL/6J, mouse, IP, 2 mg/kg, read-out: Apparent half-life, t½ (converted)) of 56.4 min and a Tmax [1, 6] of 4.8 min. It also gave an AUC [1, 6] of 0.207 µM·h, a half-life ([1]; male, C57BL/6J, mouse, IV, 2 mg/kg, read-out: Apparent half-life, t½ (converted)) of 34.8 min and a Tmax [1, 7] of 6 min. For the same compound, the AUC [1, 7] was 0.064 µM·h, the half-life ([1]; male, C57BL/6J, mouse, PO, 5 mg/kg, read-out: Apparent half-life, t½ (converted)) was 59.4 min and the “duration of MOR antagonist action (lower bound)” value ([2]; 0.1 mg/kg IP) was “at least 240 min”. For the same compound, the “duration of action (upper bound)” value ([2]; 0.1 mg/kg IP) was “less than 24 h”, the “prevention of oxycodone-induced antinociception” value ([2]; 29 0.1 mg/kg IP, 30 min before oxycodone 5.6 mg/kg IP) was “fully effective; also recorded: complete prevention” and the “prevention of peak antinociceptive effects of oxycodone (time course)” value ([2]; 29 0.1 mg/kg IP, pretreatment 15, 30, 120 and 240 min before oxycodone 5.6 mg/kg, measured 15 min after oxycodone) was “significantly prevent”. For the same compound, the “prevention of oxycodone-induced antinociception (dose-dependence)” value ([2]; 29 0.01–0.1 mg/kg IP, 30 min before oxycodone 5.6 mg/kg IP) was “dose-dependently; also recorded: dose-dependent prevention”, the “onset of antagonist action” value ([2]; after IP injection, 0.1 mg/kg) was ≤ 15 min and the half-life ([3]; brain, ip, IP dosing, brain, mice, read-out: apparent terminal half-life in the brain) was ~80 min. The Tmax ([3]; brain, ip, IP dosing, brain, read-out: Tmax in brain (converted)) was ~20 min, the half-life ([3]; brain, ip, IP, brain, read-out: Apparent half-life, t½ (converted)) was 80.4 min and the Tmax ([3]; brain, ip, IP, brain, read-out: Tmax) was 19.2 min. The Kp ([3]; brain, ip, read-out: partition coefficient, Kp,brain) was 1.6, the half-life ([3]; plasma, ip, IP dosing, plasma, read-out: apparent terminal half-life in plasma) was 55 min and the AUC ([3]; IP, brain, NCA) was 0.634 µM·h. The “blockade of locomotor effects of U50,488” value ([4]; 29 0.1 mg/kg IP, 30 min before U50,488 10 mg/kg) was “ineffective; also recorded: did not cause any apparent blockade”, the “blockade of locomotor depressant effects of U50,488” value ([4]; 29 1 mg/kg IP, 30 min before U50,488 10 mg/kg) was “did block the locomotor depressant effects; also recorded: able to prevent locomotor deficits” and the “effect on locomotor activity alone” value ([4]; 29 1 mg/kg alone, compared to a vehicle injection) was “did not cause significant effects on locomotor activity”.

With `COc1ccc2c3c1O[C@H]1C(=O)CC[C@@]4(O)[C@@H](C2)N(C)CC[C@]314` [Oxycodone, oxycodone, reference compound] the “time of peak effects after injection” value ([2]; oxycodone 5.6 mg/kg IP) was 15 min and the antinociceptive effect ([2]; oxycodone 5.6 mg/kg IP, 30 min after vehicle pretreatment) was “near-maximal antinociceptive effect”.
